Measurements: patent US4175081A, “5-Substituted thiadiazole ureas” (priority 1977, dated 1979)

What was measured:
Crabgrass (CG) [1] = assay: Pre-emergence herbicide test; format: in vivo, Digitaria sanquinalis; conditions: Digitaria sanguinalis, pre-emergence, 336 h, two weeks after treatment
Description: (§1) Crabgrass (CG)--Digitaria sanquinalis
(§2) All crop and weed species were planted individually in 3' plastic pots containing potting soil. Four seeds each of corn, cotton, and snapbeans were seeded to a depth equal to the diameter of the seed. All other species were surface seeded and sprinkled with screened soil in an amount sufficient to cover the seed. Immediately after planting, all pots were watered by sub-irrigation in greenhouse trays. Pots for the pre-emergence phase were seeded one day before treatment.
(§3) Spray hood constants required to deliver the above volume are as follows:
(§4) Formulations for spray applications were prepared in 50 ml volumes with the following three components: […]
(§5) Spray applications were made in a hood containing a removable belt and fixed spray nozzle. For passage through the spray hood, one pot of each specie (pre-emergence phase) was placed on the rear half of the flat. Treatments were removed to the greenhouse after spraying. Watering during the observation period was done only by sub-irrigation.
(§6) Two weeks after treatment, pre- and post-emergence injury or control was visually rated, and the results were as shown in the following tables. Pre-emergence data are provided in TABLE III and post-emergence data are provided in TABLE IV, for compounds having the formula illustrated in TABLE I. Correspondingly, pre-emergence and post-emergence data, respectively, are set forth in TABLES V AND VI, for compounds having the formula illustrated in TABLE II.

Turnip (TP) [2] = assay: Pre-emergence herbicide test; format: in vivo, Brassica sp.; conditions: Brassica rapa, pre-emergence, 336 h, two weeks after treatment
Description: (§7) Turnip (TP)--Brassica sp.
as §2, §3, §4, §5, §6

Bean (BN) [3] = assay: Post-emergence herbicide test; format: in vivo, Phaseolus vulgaris var. Black Valentine; conditions: Phaseolus vulgaris, post-emergence, 336 h, two weeks after treatment; for pest or weed control at 2241.7 g/ha: 2 lb/acre; for pest or weed control at 4483.4 g/ha: 4 lb/acre; for pest or weed control at 1120.85 g/ha: 1 lb/acre
Description: (§8) Bean (BN)--Phaseolus vulgaris var. Black Valentine
as §2
(§9) Planting dates for the post-emergence phase were varied so that all seedlings would reach the desired stage of development simultaneously. The proper stage of seedling development for treatment in the post-emergence phase is as follows:
Beans: primary leaves expanded, growing point at primary leaf nodes.
as §3
(§10) Formulations for spray applications were prepared in 50 ml volumes with the following three components:
(§11) Formulations for the 4 lbs/acre rate were prepared by adjusting the amount of active ingredient accordingly.
as §5, §6

Crabgrass (CG) [4] = assay: Post-emergence herbicide test; format: in vivo, Digitaria sanquinalis; conditions: Digitaria sanguinalis, post-emergence, 336 h, two weeks after treatment; for pest or weed control: 2 lb/acre; for pest or weed control at 4483.4 g/ha: 4 lb/acre; for pest or weed control at 1120.85 g/ha: 1 lb/acre
Description: as §1, §2, §9, §3, §4, §5, §6

Corn (CN) [5] = assay: Pre-emergence herbicide test; format: in vivo; conditions: Zea mays, 336 h, 2 lb/acre, two weeks after treatment
Description: as §2
(§12) Compounds were tested at rates of application equivalent to 8 lbs. of actual compound per acre in a spray volume of 38 gallons per acre. Spray hood constants required to deliver the above volume are as follows:
as §10, §11, §5, §6

Barnyard grass (BG) [6] = assay: Post-emergence herbicide test; format: in vivo; conditions: Echinochloa crus-galli, 336 h, two weeks after treatment; for pest or weed control at 2241.7 g/ha: 2 lb/acre; for pest or weed control at 4483.4 g/ha: 4 lb/acre; for pest or weed control at 1120.85 g/ha: 1 lb/acre
Description: (§13) Barnyard grass (BG)--Echinochloa crus-galli
as §2, §9, §12, §10, §11, §5, §6

Johnson grass (JG) [7] = assay: Pre-emergence herbicide test; format: in vivo, Sorgum helepense; conditions: Sorghum halepense, 336 h, two weeks after treatment
Description: (§14) Johnson grass (JG)--Sorgum helepense
as §2, §12, §10, §11, §5, §6

Cotton (CT) [8] = assay: Post-emergence herbicide test; format: in vivo, Gossypium hirsutum var. DPL smooth leaf; conditions: Gossypium hirsutum, post-emergence, 336 h, two weeks after treatment; for pest or weed control at 2241.7 g/ha: 2 lb/acre; for pest or weed control at 4483.4 g/ha: 4 lb/acre; for pest or weed control at 1120.85 g/ha: 1 lb/acre
Description: (§15) Cotton (CT)--Gossypium hirsutum var. DPL smooth leaf
as §2, §9
Cotton: first true leaf 1' in length; expanded cotyledons.
as §3, §10, §11, §5, §6

Cotton (CT) [9] = assay: Pre-emergence herbicide test; format: in vivo, Gossypium hirsutum var. DPL smooth leaf; conditions: Gossypium hirsutum, 336 h, two weeks after treatment
Description: as §15, §2, §12, §10, §11, §5, §6

Johnson grass (JG) [10] = assay: Post-emergence herbicide test; format: in vivo, Sorgum helepense; conditions: Sorghum halepense, 336 h, two weeks after treatment; for pest or weed control: 2 lb/acre; for pest or weed control at 4483.4 g/ha: 4 lb/acre; for pest or weed control at 1120.85 g/ha: 1 lb/acre
Description: as §14, §2, §9, §12, §10, §11, §5, §6

Turnip (TP) [11] = assay: Post-emergence herbicide test; format: in vivo, Brassica sp.; conditions: Brassica rapa, post-emergence, 336 h, two weeks after treatment; for pest or weed control at 2241.7 g/ha: 2 lb/acre; for pest or weed control at 4483.4 g/ha: 4 lb/acre; for pest or weed control at 1120.85 g/ha: 1 lb/acre
Description: as §7, §2, §9
Pigweed and turnips: 1 or 2 true leaves above visible cotyledons.
as §3, §4, §5, §6

Bean (BN) [12] = assay: Pre-emergence herbicide test; format: in vivo, Phaseolus vulgaris var. Black Valentine; conditions: Phaseolus vulgaris, 336 h, two weeks after treatment
Description: as §8, §2, §12, §10, §11, §5, §6

Barnyard grass (BG) [13] = assay: Pre-emergence herbicide test; format: in vivo; conditions: Echinochloa crus-galli, 336 h, two weeks after treatment
Description: as §13, §2, §12, §10, §11, §5, §6

Corn (CN) [14] = assay: Post-emergence herbicide test; format: in vivo; conditions: Zea mays, 336 h, two weeks after treatment; for pest or weed control: 2 lb/acre; for pest or weed control at 4483.4 g/ha: 4 lb/acre; for pest or weed control at 1120.85 g/ha: 1 lb/acre
Description: as §2, §9, §12, §10, §11, §5, §6

Row | SMILES | pest or weed control at 2241.7 g/ha (Bean (BN) [3]) [%] | pest or weed control (Crabgrass (CG) [4]) [%] | pest or weed control at 2241.7 g/ha (Barnyard grass (BG) [6]) [%] | pest or weed control at 2241.7 g/ha (Cotton (CT) [8]) [%] | pest or weed control (Johnson grass (JG) [10]) [%] | pest or weed control at 2241.7 g/ha (Turnip (TP) [11]) [%] | pest or weed control (Corn (CN) [14]) [%] | pest or weed control at 4483.4 g/ha (Bean (BN) [3]) [%] | pest or weed control at 4483.4 g/ha (Crabgrass (CG) [4]) [%] | pest or weed control at 4483.4 g/ha (Barnyard grass (BG) [6]) [%] | pest or weed control at 4483.4 g/ha (Cotton (CT) [8]) [%] | pest or weed control at 4483.4 g/ha (Johnson grass (JG) [10]) [%] | pest or weed control at 4483.4 g/ha (Turnip (TP) [11]) [%] | pest or weed control at 4483.4 g/ha (Corn (CN) [14]) [%] | further results
1 | C=CCSc1nnc(NC(=O)NC)s1 [Example 39, 1-Methyl-3-[5-Allythio-2-(1,3,4-Thiadiazolyl)] Urea] | 100 | 80 | 90 | 100 | 80 | 80 | 50 | – | – | – | – | – | – | – | pest or weed control (Crabgrass (CG) [1]; 2 lb/acre): 60%; pest or weed control at 2241.7 g/ha (Turnip (TP) [2]; 2 lb/acre): 70%; pest or weed control at 2241.7 g/ha (Corn (CN) [5]): 10%; pest or weed control at 2241.7 g/ha (Johnson grass (JG) [7]; 2 lb/acre): 30%; pest or weed control at 2241.7 g/ha (Cotton (CT) [9]; 2 lb/acre): 50%; pest or weed control at 2241.7 g/ha (Bean (BN) [12]; 2 lb/acre): 40%; pest or weed control at 2241.7 g/ha (Barnyard grass (BG) [13]; 2 lb/acre): 50%
2 | CNC(=O)Nc1nnc(SC(C)C)s1 [Example 40, 1-Methyl-3-[5-Isopropylthio-2-(1,3,4-Thiadiazolyl)]Urea] | – | – | – | – | – | – | – | 100 | 90 | 50 | 100 | 70 | 100 | 40 | pest or weed control at 4483.4 g/ha (Crabgrass (CG) [1]; 4 lb/acre): 50%; pest or weed control at 4483.4 g/ha (Turnip (TP) [2]; 4 lb/acre): 100%; pest or weed control at 4483.4 g/ha (Johnson grass (JG) [7]; 4 lb/acre): 30%; pest or weed control at 4483.4 g/ha (Cotton (CT) [9]; 4 lb/acre): 30%; pest or weed control at 4483.4 g/ha (Bean (BN) [12]; 4 lb/acre): 10%; pest or weed control at 4483.4 g/ha (Barnyard grass (BG) [13]; 4 lb/acre): 40%
3 | CNC(=O)Nc1nnc(SCC(C)C)s1 [Example 44] | 100 | 90 | 90 | 100 | 80 | 80 | 60 | – | – | – | – | – | – | – | pest or weed control at 1120.85 g/ha (Bean (BN) [3]): 80%; pest or weed control at 1120.85 g/ha (Crabgrass (CG) [4]): 80%; pest or weed control at 1120.85 g/ha (Barnyard grass (BG) [6]): 80%; pest or weed control at 1120.85 g/ha (Cotton (CT) [8]): 100%; pest or weed control at 1120.85 g/ha (Johnson grass (JG) [10]): 60%; pest or weed control at 1120.85 g/ha (Turnip (TP) [11]): 40%; pest or weed control at 1120.85 g/ha (Corn (CN) [14]): 60%
4 | CCCCSc1nnc(NC(=O)NC)s1 [Example 45] | 100 | 90 | 80 | 100 | 90 | 70 | 60 | – | – | – | – | – | – | – | pest or weed control at 1120.85 g/ha (Bean (BN) [3]): 90%; pest or weed control at 1120.85 g/ha (Crabgrass (CG) [4]): 90%; pest or weed control at 1120.85 g/ha (Barnyard grass (BG) [6]): 90%; pest or weed control at 1120.85 g/ha (Cotton (CT) [8]): 100%; pest or weed control at 1120.85 g/ha (Johnson grass (JG) [10]): 60%; pest or weed control at 1120.85 g/ha (Turnip (TP) [11]): 50%; pest or weed control at 1120.85 g/ha (Corn (CN) [14]): 70%
5 | CNC(=O)Nc1nnc(SCc2ccccc2)s1 [Example 46] | – | – | – | – | – | – | – | 90 | 70 | 70 | 100 | 70 | 100 | 30 | –
6 | CCCCCCS(=O)(=O)c1nnc(NC(=O)NC)s1 [Example 58] | – | – | – | – | – | – | – | 70 | 50 | 20 | 50 | 30 | 80 | 20 | –
7 | CCCCCSc1nnc(NC(=O)NC)s1 [Example 59] | – | – | – | – | – | – | – | 100 | 90 | 70 | 100 | 80 | 100 | 40 | –
